Laboratory results taken from patent publication US20180339963A1, “ANTICONVULSANT CARBAMATE DERIVATIVES” (Yissum Research Development Company of the Hebrew …, priority 2017, published 2018).
Where two headings read alike, the source gives them in different places. Marks after values point to notes of the source that are not given here.

Assays:
hCA VII = target: T1, hCA VII (Homo sapiens, UniProt P43166); experiment: Stopped flow CO2 hydrase assay, hCA VII; format: biochemical; details: mean from 3 assays, read-out: K1, hCA VII
T1 construct: made in house
Procedure: (§1) An Applied Photophysics stopped-flow instrument has been used for assaying the CA catalysed CO2 hydration activity. Phenol red (at a concentration of 0.2 mM) has been used as indicator, working at the absorbance maximum of 557 nm, with 20 mM Hepes (pH 7.5) as buffer, and 20 mM Na2SO4 (for maintaining constant the ionic strength), following the initial rates of the CA-catalyzed CO2 hydration reaction for a period of 10-100 s. The CO2 concentrations ranged from 1.7 to 17 mM for the determination of the kinetic parameters and inhibition constants. […] The uncatalyzed rates were determined in the same manner and subtracted from the total observed rates. Stock solutions of inhibitor (0.1 mM) were prepared in distilled-deionized water and dilutions up to 0.01 nM were done thereafter with the assay buffer. […] The inhibition constants were obtained by non-linear least-squares methods using PRISM 3 and the Cheng-Prusoff equation, as reported earlier and represent the mean from at least three different determinations. All CA isofoms were recombinant ones obtained in-house.

hCA IV = target: T2, hCA IV (Homo sapiens, UniProt P22748); experiment: Stopped flow CO2 hydrase assay, hCA IV; format: biochemical; details: mean from 3 assays
T2 construct: made in house
Procedure: as §1

[1] = tested on: pentylenetetrazol-induced seizure (scMet); experiment: Subcutaneous metrazol seizure test (scMet) in mice; details: Mus musculus, ip, read-out: scMet-ED50
[2] = tested on: maximal electroshock seizure (MES); experiment: Maximal electroshock seizure (MES) test in rats; details: for ED50: Rattus norvegicus; for MES-ED50: rats, p.o.
6 Hz psychomotor seizure = 6 Hz psychomotor seizure test in mice; details: Mus musculus, ip; for responders at 30 mg/kg / responders at 100 mg/kg / responders at 300 mg/kg: read-out: 6 Hz, number of mice protected/number of mice tested
in vivo [3] = details: male, CF no. 1 albino, mouse, ip
[4] = tested on: maximal electroshock seizure (MES); experiment: Maximal electroshock seizure (MES) test in mice; details: Mus musculus, ip; for responders at 30 mg/kg / responders at 100 mg/kg / responders at 300 mg/kg: read-out: MES, number of mice protected/number of mice tested; for ED50: read-out: MES-ED50, mice, i.p.
[5] = tested on: pentylenetetrazol-induced seizure (scMet); experiment: Subcutaneous metrazol seizure test (scMet) in rats; details: for ED50: Rattus norvegicus, po, read-out: scMet ED50; for scMet ED50: rats, p.o.
mice = experiment: Neurotoxicity (minimal motor impairment, rotarod) in mice; details: mice i.p.
hCA II = target: T3, hCA II (Homo sapiens, UniProt P00918); experiment: Stopped flow CO2 hydrase assay, hCA II; format: biochemical; details: mean from 3 assays, read-out: K1, hCA II
T3 construct: made in house
Procedure: as §1

hCA I = target: T4, hCA I (Homo sapiens, UniProt P00915); experiment: Stopped flow CO2 hydrase assay, hCA I; format: biochemical; details: mean from 3 assays, read-out: K1, hCAI
T4 construct: made in house
Procedure: as §1

SWV mice = experiment: Teratogenicity in the SWV mouse model; format: in vivo; details: for No. of fetuses with NTDs / No. of implants / No. of live fetuses / No. of resorptions / Fetal weight mean ± SD: day 8.5 of gestation; for Fetal weight mean ± SD: in g (unit assumed); for No. of live fetuses, figure in parentheses / No. of resorptions, figure in parentheses: share of implants; for No. of fetuses with NTDs, figure in parentheses: share of live fetuses
Procedure: The teratogenic properties of the newly designed compounds (1-10) were evaluated in the highly inbred SWV mice strain known for its high susceptibility to VPA-induced neural tube defects (NTDs). Two month old nulligravid females, were mated overnight with males and examined for the presence of vaginal plugs the following morning, and the onset of gestation was considered to be 10 p.m. of the previous night, the midpoint of the dark cycle. At day 8.5 of gestation, each dam received a single i.p. injection of the test compounds in an equimolar dose of 0.9 or 1.8 mmol/kg and the control dams were injected with vehicle (25% water solution of Cremophore EL, Fluka Biochemica Germany). The volume of injection was 10 μL/g of body weight. […] At gestation day […], the dams were euthanized by carbon dioxide asphyxiation followed by cervical dislocation. After the opening the uterus, the location of all viable fetuses and resorption sites were recorded, and the fetuses were examined for the presence of exencephaly or other gross congenital abnormalities. The teratogenicity data (implantations, resorptions and NTDs) were evaluated for significant differences between the control and treated groups by analyzing the contingency table with Fisher's exact test. Statistical analysis was conducted using GraphPad InStat (version 3.06; GraphPad Software, San Diego, Calif., USA), and the results of all tests were considered to be statistically significant when the p-value was less than 0.05

in vivo [6] = details: Sprague-Dawley, rat
corneal kindled mouse = experiment: Corneal kindled mouse (CKM) model; format: in vivo; details: ip, mice
[7] = po, read-out: MES-ED50, rats, p.o.
[8] = read-out: 6 Hz-ED50, mice, i.p., 32 mA

T1 sequence (P43166 whole entry): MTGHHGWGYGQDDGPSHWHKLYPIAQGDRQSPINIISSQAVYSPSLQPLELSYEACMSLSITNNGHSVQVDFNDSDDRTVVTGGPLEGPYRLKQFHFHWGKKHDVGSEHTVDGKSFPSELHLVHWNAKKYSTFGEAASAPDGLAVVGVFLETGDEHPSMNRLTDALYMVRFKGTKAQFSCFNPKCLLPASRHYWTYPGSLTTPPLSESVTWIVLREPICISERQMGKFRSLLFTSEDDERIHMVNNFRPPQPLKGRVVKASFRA
T2 sequence (P22748 19-284): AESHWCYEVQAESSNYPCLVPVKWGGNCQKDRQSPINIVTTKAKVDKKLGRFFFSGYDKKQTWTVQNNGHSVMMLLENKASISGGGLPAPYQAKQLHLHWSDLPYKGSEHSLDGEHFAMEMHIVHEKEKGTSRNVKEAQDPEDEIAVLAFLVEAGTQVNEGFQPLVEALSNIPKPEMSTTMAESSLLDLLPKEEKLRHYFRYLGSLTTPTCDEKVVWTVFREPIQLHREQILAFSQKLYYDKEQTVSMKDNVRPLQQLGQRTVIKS
T4 sequence (P00915 whole entry): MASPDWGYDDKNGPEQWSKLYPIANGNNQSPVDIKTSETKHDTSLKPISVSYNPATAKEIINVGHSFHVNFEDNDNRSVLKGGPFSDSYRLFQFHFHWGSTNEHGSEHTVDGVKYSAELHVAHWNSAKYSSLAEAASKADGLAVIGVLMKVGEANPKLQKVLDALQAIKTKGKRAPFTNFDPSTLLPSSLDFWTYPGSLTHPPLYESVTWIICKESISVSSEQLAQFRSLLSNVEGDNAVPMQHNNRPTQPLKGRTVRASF

SMILES: CCC(C)C(C)OC(=O)Nc1ccc(S(N)(=O)=O)cc1 (stereo not shown) [Compound 9, 3-methylpentan-2-yl (4-sulfamoylphenyl)carbamate]
- Ki (hCA VII): 35.5 nM
- K1, hCA IV (hCA IV): medium potency inhibitors
- Ki (hCA IV; read-out: K1, hCA IV): 183 nM
- melting point: 179 to 180 °C
- ED50 [1]: 369 mg/kg
- ED50 [2, 7]: 23 mg/kg
- MES-ED50 [2]: 28 mg/kg
- responders at 30 mg/kg (6 Hz psychomotor seizure; 0.5 h): 50%
- responders at 100 mg/kg (6 Hz psychomotor seizure; 0.5 h): 50%
- responders at 300 mg/kg (6 Hz psychomotor seizure; 0.5 h): 100%
- responders at 30 mg/kg (6 Hz psychomotor seizure; 2 h): 0%
- responders at 100 mg/kg (6 Hz psychomotor seizure; 2 h): 0%
- responders at 300 mg/kg (6 Hz psychomotor seizure; 2 h): 25%
- ED50 (6 Hz psychomotor seizure; [8]): 53 mg/kg
- TD50 (in vivo [3]): > 600 mg/kg
- responders at 30 mg/kg ([4]; 0.5 h): 75%
- responders at 100 mg/kg ([4]; 0.5 h): 75%
- responders at 300 mg/kg ([4]; 0.5 h): 100%
- responders at 30 mg/kg ([4]; 2 h): 0%
- responders at 100 mg/kg ([4]; 2 h): 100%
- responders at 300 mg/kg ([4]; 2 h): 100%
- ED50 [4]: 31 mg/kg
- ED50 [5]: > 250 mg/kg
- scMet ED50 [5]: inactive
- Tox (motor impairment or sedation), number of animals affected/number of animals tested (mice; 30 mg/kg, 0.5 h): 0/8
- Tox (motor impairment or sedation), number of animals affected/number of animals tested (mice; 30 mg/kg, 2.0 h): 0/8
- Tox (motor impairment or sedation), number of animals affected/number of animals tested (mice; 100 mg/kg, 0.5 h): 0/8
- Tox (motor impairment or sedation), number of animals affected/number of animals tested (mice; 100 mg/kg, 2.0 h): 0/8
- Tox (motor impairment or sedation), number of animals affected/number of animals tested (mice; 300 mg/kg, 0.5 h): 0/8
- Tox (motor impairment or sedation), number of animals affected/number of animals tested (mice; 300 mg/kg, 2.0 h): 0/8
- Ki (hCA II): 5.4 nM
- Ki (hCA I): 72.9 nM
- induction of neural tube defects relative to anticonvulsant effective dose (in words) (SWV mice): induced neural tube defects only at doses markedly exceeding their effective dose
- No. of fetuses with NTDs (SWV mice; single i.p. 0.9 mmol/kg): 3
- No. of implants (SWV mice; single i.p. 0.9 mmol/kg): 126
- No. of live fetuses (SWV mice; single i.p. 0.9 mmol/kg): 109
- No. of resorptions (SWV mice; single i.p. 0.9 mmol/kg): 17
- Fetal weight mean ± SD (SWV mice; single i.p. 0.9 mmol/kg): 0.90 ± 0.07
- No. of live fetuses, figure in parentheses (SWV mice; single i.p. 0.9 mmol/kg): 86.5%
- No. of resorptions, figure in parentheses (SWV mice; single i.p. 0.9 mmol/kg): 13.5%
- No. of fetuses with NTDs, figure in parentheses (SWV mice; single i.p. 0.9 mmol/kg): (2.8)
- No. of fetuses with NTDs (SWV mice; single i.p. 1.8 mmol/kg): 9
- No. of implants (SWV mice; single i.p. 1.8 mmol/kg): 107
- No. of live fetuses (SWV mice; single i.p. 1.8 mmol/kg): 49
- No. of resorptions (SWV mice; single i.p. 1.8 mmol/kg): 58
- Fetal weight mean ± SD (SWV mice; single i.p. 1.8 mmol/kg): 0.89 ± 0.08
- No. of live fetuses, figure in parentheses (SWV mice; single i.p. 1.8 mmol/kg): 45.8%
- No. of resorptions, figure in parentheses (SWV mice; single i.p. 1.8 mmol/kg): 54.2%
- No. of fetuses with NTDs, figure in parentheses (SWV mice; single i.p. 1.8 mmol/kg): (18.4)*
- TD50 (in vivo [6]; male, po): > 500 mg/kg

SMILES: CCC(C)CCOC(=O)Nc1ccc(S(N)(=O)=O)cc1 (stereo not shown) [Compound 10, 3-methylpentyl(4-sulfamoylphenyl)carbamate]
- Ki (hCA VII): 351 nM
- melting point: 168 to 169 °C
- ED50 [1]: 70 mg/kg
- ED50 ([2]; ip, read-out: MES-ED50, rats, i.p.): 13 mg/kg
- ED50 [2, 7]: 28 mg/kg
- MES-ED50 [2]: 23 mg/kg
- responders at 30 mg/kg (6 Hz psychomotor seizure; 0.5 h): 25%
- responders at 100 mg/kg (6 Hz psychomotor seizure; 0.5 h): 75%
- responders at 300 mg/kg (6 Hz psychomotor seizure; 0.5 h): 100%
- responders at 30 mg/kg (6 Hz psychomotor seizure; 2 h): 0%
- responders at 100 mg/kg (6 Hz psychomotor seizure; 2 h): 50%
- responders at 300 mg/kg (6 Hz psychomotor seizure; 2 h): 100%
- ED50 (6 Hz psychomotor seizure; read-out: 6 Hz (44 mA)-ED50, mice, i.p., 44 mA): 88 mg/kg
- ED50 (6 Hz psychomotor seizure; [8]): 80 mg/kg
- ED50 (corneal kindled mouse): 59 mg/kg
- TD50 (in vivo [3]): 698 mg/kg
- responders at 30 mg/kg ([4]; 0.5 h): 75%
- responders at 100 mg/kg ([4]; 0.5 h): 100%
- responders at 300 mg/kg ([4]; 0.5 h): 75%
- responders at 30 mg/kg ([4]; 2 h): 25%
- responders at 100 mg/kg ([4]; 2 h): 100%
- responders at 300 mg/kg ([4]; 2 h): 100%
- ED50 [4]: 14 mg/kg
- ED50 [5]: > 250 mg/kg
- scMet ED50 [5]: inactive
- Tox (motor impairment or sedation), number of animals affected/number of animals tested (mice; 30 mg/kg, 0.5 h): 1/8
- Tox (motor impairment or sedation), number of animals affected/number of animals tested (mice; 30 mg/kg, 2.0 h): 0/8
- Tox (motor impairment or sedation), number of animals affected/number of animals tested (mice; 100 mg/kg, 0.5 h): 0/8
- Tox (motor impairment or sedation), number of animals affected/number of animals tested (mice; 100 mg/kg, 2.0 h): 0/8
- Tox (motor impairment or sedation), number of animals affected/number of animals tested (mice; 300 mg/kg, 0.5 h): 1/8
- Tox (motor impairment or sedation), number of animals affected/number of animals tested (mice; 300 mg/kg, 2.0 h): 0/8
- induction of neural tube defects relative to anticonvulsant effective dose (in words) (SWV mice): induced neural tube defects only at doses markedly exceeding their effective dose
- No. of fetuses with NTDs (SWV mice; single i.p. 0.9 mmol/kg): 9
- No. of implants (SWV mice; single i.p. 0.9 mmol/kg): 145
- No. of live fetuses (SWV mice; single i.p. 0.9 mmol/kg): 116
- No. of resorptions (SWV mice; single i.p. 0.9 mmol/kg): 29
- Fetal weight mean ± SD (SWV mice; single i.p. 0.9 mmol/kg): 0.88 ± 0.03
- No. of live fetuses, figure in parentheses (SWV mice; single i.p. 0.9 mmol/kg): 80%
- No. of resorptions, figure in parentheses (SWV mice; single i.p. 0.9 mmol/kg): 20%
- No. of fetuses with NTDs, figure in parentheses (SWV mice; single i.p. 0.9 mmol/kg): (7.8)*
- No. of fetuses with NTDs (SWV mice; single i.p. 1.8 mmol/kg): 17
- No. of implants (SWV mice; single i.p. 1.8 mmol/kg): 108
- No. of live fetuses (SWV mice; single i.p. 1.8 mmol/kg): 56
- No. of resorptions (SWV mice; single i.p. 1.8 mmol/kg): 52
- Fetal weight mean ± SD (SWV mice; single i.p. 1.8 mmol/kg): 0.87 ± 0.08
- No. of live fetuses, figure in parentheses (SWV mice; single i.p. 1.8 mmol/kg): 51.9%
- No. of resorptions, figure in parentheses (SWV mice; single i.p. 1.8 mmol/kg): 48.2%
- No. of fetuses with NTDs, figure in parentheses (SWV mice; single i.p. 1.8 mmol/kg): (30.4)*
- TD50 (in vivo [6]; ip): > 250 mg/kg
- TD50 (in vivo [6]; male, po): > 500 mg/kg
